Test results reported in ChEMBL document CHEMBL5338823, “Discovery of Novel 5,6-Dihydro-1,2,4-triazine Derivatives as Efficacious Glucagon-Like Peptide-1 Receptor Agonists” (J Med Chem, 2023).
Each block holds one compound with its values, some of them ahead of it. Calls of active or inactive are those of the source. No cut-off for these calls is given here.

Experiments:
hERG (KCNH2) = hERG (KCNH2) (Homo sapiens, UniProt Q12809); assay: Inhibition of hERG at 40 uM relative to control
[1] = Stability in human liver microsomes assessed as half-life at 1 uM measured upto 60 mins in the presence of NADPH by LC-MS/MS analysis; assay type: ADME, Microsome
[2] = Stability in rat liver microsomes assessed as half-life at 1 uM measured upto 60 mins in the presence of NADPH by LC-MS/MS analysis; assay type: ADME, Microsome
[3] = Stability in mouse liver microsomes assessed as half-life at 1 uM measured upto 60 mins in the presence of NADPH by LC-MS/MS analysis; assay type: ADME, Microsome
[4] = Stability in human liver microsomes assessed as intrinsic clearance at 1 uM measured upto 60 mins in the presence of NADPH by LC-MS/MS analysis; assay type: ADME, Microsome; details: 1 h
[5] = Stability in rat liver microsomes assessed as intrinsic clearance at 1 uM measured upto 60 mins in the presence of NADPH by LC-MS/MS analysis; assay type: ADME, Microsome; details: 1 h
[6] = Stability in mouse liver microsomes assessed as intrinsic clearance at 1 uM measured upto 60 mins in the presence of NADPH by LC-MS/MS analysis; assay type: ADME, Microsome; details: 1 h
[7] = target: T1, Glucagon-like peptide 1 receptor (Mus musculus) (UniProt O35659); assay: Activation of mouse GLP-1R
T1 sequence (whole entry): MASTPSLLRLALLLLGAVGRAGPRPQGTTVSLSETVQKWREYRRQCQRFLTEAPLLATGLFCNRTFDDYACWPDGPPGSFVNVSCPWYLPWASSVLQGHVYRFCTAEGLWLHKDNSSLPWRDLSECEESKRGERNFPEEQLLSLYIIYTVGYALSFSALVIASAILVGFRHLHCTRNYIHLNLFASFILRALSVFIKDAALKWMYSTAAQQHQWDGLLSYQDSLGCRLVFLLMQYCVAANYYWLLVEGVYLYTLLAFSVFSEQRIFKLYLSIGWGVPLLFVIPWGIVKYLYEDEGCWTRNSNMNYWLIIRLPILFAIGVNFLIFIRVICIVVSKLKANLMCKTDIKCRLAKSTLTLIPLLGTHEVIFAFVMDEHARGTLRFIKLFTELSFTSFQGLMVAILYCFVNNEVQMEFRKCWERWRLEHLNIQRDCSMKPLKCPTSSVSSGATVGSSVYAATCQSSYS

Mus musculus [8] = assay: In vivo agonist activity at GLP-1R in C57BL/6J mouse with human GLP-1R knock-in assessed as reduction in blood glucose level at 1 mg/kg, po pre-treated with compound for 1 hrs followed by glucose administration and measured upto 90 mins by Oral Glucose Tolerance Test; assay type: functional, organism-based; details: time <= 150.0 min
Mus musculus [9] = assay: In vivo agonist activity at GLP-1R in C57BL/6J mouse with human GLP-1R knock-in assessed as reduction in food intake at 30 mg/kg, sc measured after 2.5 to 12 hrs in dark cycle; assay type: functional, organism-based; details: time 2.5-12 hrs
[10] = target: Glucagon-like peptide 1 receptor (Homo sapiens, UniProt P43220); assay: Agonist activity at N-terminal HA-tagged human GLP-1R expressed in HEK293 cells assessed as effect on intracellular cAMP accumulation incubated for 30 mins by LANCA ultra cAMP assay; assay type: functional, cell-based
Chain of Glucagon-like peptide 1 receptor (P43220 whole entry): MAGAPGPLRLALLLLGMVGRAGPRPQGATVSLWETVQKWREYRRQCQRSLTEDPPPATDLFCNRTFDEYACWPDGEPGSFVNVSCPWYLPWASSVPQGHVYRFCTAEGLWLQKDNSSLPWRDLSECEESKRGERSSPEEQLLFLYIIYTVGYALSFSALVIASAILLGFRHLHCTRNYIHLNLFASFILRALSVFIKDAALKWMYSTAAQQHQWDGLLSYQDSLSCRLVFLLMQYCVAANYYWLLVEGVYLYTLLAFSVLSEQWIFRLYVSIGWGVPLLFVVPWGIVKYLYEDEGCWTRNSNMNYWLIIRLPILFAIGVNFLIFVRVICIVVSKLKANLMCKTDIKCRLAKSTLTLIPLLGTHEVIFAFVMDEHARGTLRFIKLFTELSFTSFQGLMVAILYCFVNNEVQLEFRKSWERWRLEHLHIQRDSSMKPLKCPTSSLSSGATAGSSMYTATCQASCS

Chain of hERG (KCNH2) (Q12809 whole entry): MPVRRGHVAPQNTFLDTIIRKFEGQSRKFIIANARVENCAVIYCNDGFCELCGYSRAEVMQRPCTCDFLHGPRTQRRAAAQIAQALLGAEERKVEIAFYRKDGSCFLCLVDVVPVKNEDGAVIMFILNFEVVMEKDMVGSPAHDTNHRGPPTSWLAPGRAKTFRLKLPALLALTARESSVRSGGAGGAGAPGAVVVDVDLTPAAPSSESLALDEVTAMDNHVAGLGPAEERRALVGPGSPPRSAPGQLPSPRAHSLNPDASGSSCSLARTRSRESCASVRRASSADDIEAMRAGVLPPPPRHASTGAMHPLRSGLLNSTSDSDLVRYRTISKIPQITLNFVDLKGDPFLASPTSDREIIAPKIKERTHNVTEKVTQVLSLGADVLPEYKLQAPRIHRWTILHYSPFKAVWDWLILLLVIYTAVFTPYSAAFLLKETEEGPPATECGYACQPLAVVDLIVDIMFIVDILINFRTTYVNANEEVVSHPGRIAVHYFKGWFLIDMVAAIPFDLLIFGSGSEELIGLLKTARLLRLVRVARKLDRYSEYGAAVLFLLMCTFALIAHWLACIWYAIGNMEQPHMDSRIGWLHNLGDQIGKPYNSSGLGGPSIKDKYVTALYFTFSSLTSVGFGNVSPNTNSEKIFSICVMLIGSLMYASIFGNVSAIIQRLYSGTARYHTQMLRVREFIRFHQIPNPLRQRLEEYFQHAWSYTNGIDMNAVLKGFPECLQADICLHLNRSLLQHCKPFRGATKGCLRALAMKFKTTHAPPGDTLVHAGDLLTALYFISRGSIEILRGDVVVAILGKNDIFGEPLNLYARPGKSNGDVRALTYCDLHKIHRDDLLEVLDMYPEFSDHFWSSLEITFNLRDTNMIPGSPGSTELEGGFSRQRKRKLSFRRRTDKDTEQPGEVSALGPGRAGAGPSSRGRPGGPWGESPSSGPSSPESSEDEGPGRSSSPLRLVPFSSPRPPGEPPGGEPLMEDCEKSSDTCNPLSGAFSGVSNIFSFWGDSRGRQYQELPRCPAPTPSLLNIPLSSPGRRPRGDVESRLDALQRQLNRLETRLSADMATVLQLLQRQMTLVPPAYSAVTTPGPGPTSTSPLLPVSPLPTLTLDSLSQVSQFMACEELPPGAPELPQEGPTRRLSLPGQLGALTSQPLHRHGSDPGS

half-life at 1 µM [1]: 6.92 h
half-life at 1 µM [2]: 2.72 h
half-life at 1 µM [3]: 2.8 h
CLH [4]: 5 mL/min/g
CLH [5]: 13 mL/min/g
CLH [6]: 13 mL/min/g
Activity [7]: inactive
SMILES: N#Cc1ccc(COc2cccc(C3CCN(Cc4nc5ccc(C(=O)O)cc5n4C[C@@H]4CCO4)CC3)n2)c(F)c1 [DANUGLIPRON]
inhibition at 40 µM (hERG (KCNH2)): 90%
Activity (Mus musculus [8]): Active
Activity (Mus musculus [9]): Active

EC50 [10]: > 10000 nM
SMILES: N#Cc1ccc(COc2cccc(N3C[C@H]4CN(Cc5nc6ccc(C(=O)O)cc6n5C[C@@H]5CCO5)C[C@H]4C3)n2)c(F)c1

EC50 [10]: 153 nM
SMILES: N#Cc1ccc(COc2cccc(N3CCC(NCc4nc5ccc(C(=O)O)cc5n4C[C@@H]4CCO4)CC3)n2)c(F)c1

Further lines, the compound ahead of its results:

SMILES: N#Cc1ccc(COc2cccc(OC3CCN(Cc4nc5ccc(C(=O)O)cc5n4C[C@@H]4CCO4)CC3)n2)c(F)c1
EC50 [10]: 0.7 nM

SMILES: N#Cc1ccc(COc2cccc(N3CC4(CC3=O)CN(Cc3nc5ccc(C(=O)O)cc5n3C[C@@H]3CCO3)C4)n2)c(F)c1
EC50 [10]: > 10000 nM

SMILES: N#Cc1ccc(COc2cccc(N3CCC4(CN(Cc5nc6ccc(C(=O)O)cc6n5C[C@@H]5CCO5)C4)C3)n2)c(F)c1
EC50 [10]: 5010 nM

SMILES: CC1CN(c2cccc(OCc3ccc(C#N)cc3F)n2)C=NN1Cc1nc2ccc(C(=O)O)cc2n1C[C@@H]1CCO1 (some centres not stated)
EC50 [10]: 0.6 nM

SMILES: O=C(O)c1cc(F)c2nc(CN3CCN(c4cccc(OCc5ccc(Cl)c6cc(F)oc56)n4)C=N3)n(C[C@@H]3CCO3)c2c1
half-life at 1 µM [1]: 2.77 h
half-life at 1 µM [2]: 1.58 h
half-life at 1 µM [3]: 1.72 h
CLH [4]: 13 mL/min/g
CLH [5]: 22 mL/min/g
CLH [6]: 21 mL/min/g
